The supplement of paper PMC7600603

Tests used:
Settings in all cases: 72 h; CellTox Green cytotoxicity
DLD1 NRF2-WT [1] = experiment: drug sensitivity score (DSS) cytotoxicity (DSS score); higher = more toxic; extreme values may be limits of the assay
In short: (§1)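 Isogenic DLD1 colorectal cancer cells differing in NRF2 status, one line edited by CRISPR, were cultured in DMEM with 10% FBS and treated in 384-well plates with library compounds at 5 concentrations spanning a 10,000-fold range. Plates were read after 72 h with CellTox Green on a Pherastar FS reader, and signals were normalised to vehicle wells and 100-μM positive-control wells. Cytotoxicity was summarised as TC50 and as a drug sensitivity score, a normalised area under the curve, both from logistic dose-response fits.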

DLD1 NRF2-GOF [2] = experiment: as above
In short: as §1

DLD1 NRF2-WT [3] = experiment: TC50 cytotoxicity; higher = less toxic
In short: as §1

DLD1 NRF2-GOF [4] = experiment: TC50 cytotoxicity; higher = less toxic
In short: as §1

SMILES | drug sensitivity score (DLD1 NRF2-WT [1]) | drug sensitivity score (DLD1 NRF2-GOF [2]) | TC50 cytotoxicity (DLD1 NRF2-WT [3]) [µM] | TC50 cytotoxicity (DLD1 NRF2-GOF [4]) [µM]
COCCNCc1ccc(-c2cc3nccc(Oc4ccc(NC(=S)NC(=O)Cc5ccc(F)cc5)cc4F)c3s2)nc1 [Glesatinib] | 0 | 0 | > 2.5 | > 2.5
COc1nc(N)nc2c1ncn2[C@@H]1O[C@H](CO)[C@@H](O)[C@@H]1O [Nelarabine] | 0 | 0 | > 10 | > 10
C[C@H]1CNCCCN1S(=O)(=O)c1cccc2cncc(F)c12 [Ripasudil] | 0 | 0 | > 10 | > 10
Cc1c(-c2ccc(N3CCc4cccc(C(=O)Nc5nc6ccccc6s5)c4C3)nc2C(=O)O)cnn1CC12CC3CC(CC(C3)C1)C2 |  | 0 |  | > 1
CN(C)Cc1ccc(S(=O)(=O)n2ccc(/C=C/C(=O)NO)c2)cc1 [Resminostat] | 0 | 0 | > 10 | > 10
Cc1c(C(=O)Nc2ccc(N3C[C@@H](C)O[C@@H](C)C3)nc2)cccc1-c1ccc(OC(F)(F)F)cc1 [Sonidegib] | 0 | 0 | > 10 | > 10
CN(C(=O)c1ccc(F)cc1C(F)(F)F)C1CCN(c2nnc(-c3ccnn3C)c3ccccc23)CC1 [Taladegib] | 0 | 0 | > 10 | > 10
NC(=O)/C(=C/n1cnc(-c2cc(C(F)(F)F)cc(C(F)(F)F)c2)n1)c1cncnc1 [KPT-8602] | 0 | 0 | > 10 | > 10
O=C(CCCCCCNC(=O)c1cnc(N(c2ccccc2)c2ccccc2)nc1)NO [Rocilinostat] | 0 | 0 | > 10 | > 10
COc1cc2c(NC3CCN(C(C)C)CC3)nc(N3CCC(F)(F)CC3)nc2cc1OCCCN1CCCC1 [UNC0642] | 0 | 0.1 | > 10 | > 10
COc1cc(C(=O)O)ccc1NC(=O)[C@@H]1N[C@@H](CC(C)(C)C)[C@](C#N)(c2ccc(Cl)cc2F)[C@H]1c1cccc(Cl)c1F [Idasanutlin] | 0 | 0 | > 10 | > 10
Cc1cc(-c2ncc(CC(=O)Nc3ccc(-c4cnccn4)cn3)cc2C)ccn1 [NVP-LGK974] | 0 | 0 | > 10 | > 10
Cn1cnc2c(F)c(Nc3ccc(Br)cc3F)c(C(=O)NOCCO)cc21 [Binimetinib] | 0 | 0 | > 1 | > 1
C[C@]12CC[C@@H]3c4ccc(O)cc4C[C@@H](CCCCCCCCC[S+]([O-])CCCC(F)(F)C(F)(F)F)[C@H]3[C@@H]1CC[C@@H]2O (stereo partly specified) [Fulvestrant] | 0 | 0 | > 1 | > 1
CS(=O)(=O)c1ccc(C(=O)Nc2ccc(Cl)c(-c3ccccn3)c2)c(Cl)c1 [Vismodegib] | 0 | 0 | > 10 | > 10
Nc1nc2cc(-c3ccc4ncc(C(=O)N5CCOCC5)n4c3)ccc2o1 [MLN1117] | 0 | 0 | > 10 | > 10
CCN1C(=O)CNc2ncc(-c3ccc(-c4nc[nH]n4)nc3C)nc21 [CC-115] | 1.4 | 0.1 |  | > 10
Cc1ccc(NC(=O)c2ccc(CN3CC[C@H](N(C)C)C3)c(C(F)(F)F)c2)cc1Nc1nccc(-c2cncnc2)n1 [Bafetinib] | 0 | 0 | > 1 | > 1
CN(CC(=O)N(Cc1ccc(C2CCCCC2)cc1)c1ccc(C(=O)O)cc1)S(=O)(=O)c1c(F)c(F)c(F)c(F)c1F [SH-4-54] | 0 | 0 | > 25 | > 25
CC1(C)CC[C@]2(NC(=O)C(C)(F)F)CC[C@]3(C)[C@H](C(=O)C=C4[C@@]5(C)C=C(C#N)C(=O)C(C)(C)[C@@H]5CC[C@]43C)[C@@H]2C1 [Omaveloxolone] | 0 | 0 | > 10 | > 10
Cn1nccc1Nc1nccc(-c2ccn([C@H](CO)c3ccc(Cl)c(F)c3)c(=O)c2)n1 [GDC-0994] | 0 | 0 | > 10 | > 10
O[C@H]1CC[C@H](Nc2ncc3nc(Nc4c(F)cc(F)cc4F)n([C@H]4CCOC4)c3n2)CC1 [Tanzisertib] | 0 | 0 | > 10 | > 10

SMILES | drug sensitivity score (DLD1 NRF2-WT [1]) | drug sensitivity score (DLD1 NRF2-GOF [2]) | TC50 cytotoxicity (DLD1 NRF2-WT [3]) [µM] | TC50 cytotoxicity (DLD1 NRF2-GOF [4]) [µM]
Cc1cc(C(C)Nc2ccccc2)c2nc(N3CCOCC3)cc(=O)n2c1 (stereo unspecified) [TGX-221] | 0 | 0 | > 10 | > 10
CC(C)c1cc(C(=O)N2Cc3ccc(CN4CCN(C)CC4)cc3C2)c(O)cc1O [Onalespib] | 0 | 0 | > 2.5 | > 2.5
CN1CCN(c2ccc(C(=O)Nc3n[nH]c4ccc(Cc5cc(F)cc(F)c5)cc34)c(NC3CCOCC3)c2)CC1 [Entrectinib] | 0 | 0 | > 1 | > 1
CNS(=O)(=O)Nc1nccc(Cc2c(C)c3ccc(Oc4ncccn4)cc3oc2=O)c1F | 0 | 0 | > 1 | > 1
CC(C)[C@@H](CS(=O)(=O)C(C)C)N1C(=O)[C@@](C)(CC(=O)O)C[C@H](c2cccc(Cl)c2)[C@H]1c1ccc(Cl)cc1 [AMG-232] | 0 | 0 | > 10 | > 10
CC(C)C[C@@H](C(=O)N[C@H](C(=O)OC1CCCC1)c1ccccc1)[C@H](O)C(=O)NO [Tosedostat] | 4.9 | 4.6 |  | > 10
CN1CC[C@@H](NC(=O)Nc2ccc(C#N)cc2)C[C@@H]1c1nc2ccccc2[nH]1 [Glasdegib] | 0 | 0 | > 1 | > 1
Cc1cc2c(C(=O)NC[C@H](C)c3ccccc3)c(O)c(O)cc2c(O)c1-c1c(C)cc2c(C(=O)NC[C@H](C)c3ccccc3)c(O)c(O)cc2c1O [Sabutoclax] | 0 | 0 | > 25 | > 25
O=C(O)CC1CC(c2ccccc2)=NO1 (stereo unspecified) [VGX-1027] | 0 | 0 | > 10 | > 10
CC#CC(=O)N1CC[C@@H](n2c(=O)n(-c3ccc(Oc4ccccc4)cc3)c3c(N)ncnc32)C1 [ONO-4059] | 0 | 0 | > 1 | > 1
O=C(Nc1cccc(Nc2ncc(Br)c(NCCc3cnc[nH]3)n2)c1)N1CCCC1 [BX-912] | 2.2 | 2.5 | > 10 | > 10
O=C(c1cccc(Cl)c1F)N1CCN(Cc2cccc(Nc3nccs3)n2)CC1 [MK-8745] | 2 | 2.9 |  | 1.55
Cc1c(F)cc(C(=O)NC2CC2)cc1-c1ccc(C(=O)NCC(C)(C)C)cn1 [Losmapimod] | 0 | 0 | > 10 | > 10
C[C@@H]1CN(Cc2ccc(F)cc2)[C@@H](C)CN1C(=O)c1cc2c(C(=O)C(=O)N(C)C)cn(C)c2cc1Cl [Talmapimod] | 0 | 0 | > 10 | > 10
CCCCNc1ncc(C(=O)NCc2ccc(-n3ccnc3)cc2)c(NC2CCC(O)CC2)n1 (stereo unspecified) [UNC2881] | 0 | 0 | > 2.5 | > 2.5
NS(=O)(=O)OC[C@@H]1C[C@@H](n2ccc3c(N[C@H]4CCc5ccccc54)ncnc32)C[C@@H]1O [Pevonedistat] | 0 | 0 | > 10 | > 10
CCCCCOC(=O)Nc1nc(=O)n([C@@H]2O[C@H](C)[C@@H](O)[C@H]2O)cc1F [Capecitabine] | 0 | 0 | > 10 | > 10
CCS(=O)(=O)N1CC(CC#N)(n2cc(-c3ncnc4[nH]ccc34)cn2)C1 [Baricitinib] | 0 | 0 | > 2.5 | > 2.5
Nc1cccc2c1CN(C1CCC(=O)NC1=O)C2=O (stereo unspecified) [Lenalidomide] | 0 | 0 | > 100 | > 100
C=CCN(/C=C1/C(=O)O[C@H](COC)[C@@]2(C)C1=C(O)C(=O)C1=C2[C@H](OC(C)=O)C[C@]2(C)C(=O)CC[C@@H]12)CC=C [Sonolisib] | 0 | 0 | > 10 | > 10
CN1CCN(c2cc(C(=O)Nc3ccc4c(c3)-c3c(c(C(N)=O)nn3-c3ccc(F)cc3)CC4)c(Cl)cn2)CC1 [PHA 408] | 0 | 0 | > 10 | > 10
CCOC(=O)C1=CCCC[C@H]1S(=O)(=O)Nc1ccc(F)cc1Cl [Resatorvid] | 0 | 0 | > 10 | > 10
